Each block holds one compound with its values, some of them ahead of it. Square brackets hold non-standard residues; d marks the D form. Peptide text beside a SMILES is read from it.
Legend:
Mu-type opioid receptor = Mu-type opioid receptor (Homo sapiens, UniProt P35372); assay: Displacement of [3H]-DAMGO from mu opioid receptor (unknown origin) expressed in CHO cells incubated for 90 mins in presence of peptidase inhibitors; assay type: cell-based
Homo sapiens = organism: Homo sapiens; assay: Selectivity index, ratio of Ki for displacement of [3H]-DAMGO from MOR (unknown origin) expressed in CHO cells to Ki for displacement of [3H]-Diprenorphine from KOR (unknown origin) expressed in CHO cells; assay type: cell-based
[1] = biological target: T1, Kappa-type opioid receptor (Homo sapiens, UniProt P41145); assay: Displacement of [3H]-Diprenorphine from kappa opiod receptor (unknown origin) expressed in CHO cells incubated for 90 mins in presence of peptidase inhibitors; assay type: cell-based
T1 sequence (P41145 whole entry): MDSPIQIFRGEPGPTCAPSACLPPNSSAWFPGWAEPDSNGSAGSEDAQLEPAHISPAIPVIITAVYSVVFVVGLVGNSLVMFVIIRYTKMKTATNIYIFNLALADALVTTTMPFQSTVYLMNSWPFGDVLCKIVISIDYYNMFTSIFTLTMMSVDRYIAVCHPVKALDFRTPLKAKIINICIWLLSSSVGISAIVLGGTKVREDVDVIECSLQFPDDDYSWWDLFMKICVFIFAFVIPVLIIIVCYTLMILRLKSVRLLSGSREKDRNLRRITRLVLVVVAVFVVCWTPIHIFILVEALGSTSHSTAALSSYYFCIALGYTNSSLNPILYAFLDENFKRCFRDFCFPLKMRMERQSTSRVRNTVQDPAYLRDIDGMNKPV

[2] = biological target: T1, Kappa-type opioid receptor; assay: Antagonist activity at kappa opioid receptor (unkown origin) expressed in CHO cell membranes assessed as inhibition of Dyn A-(1-13)NH2 stimulated [35S]GTPgammaS binding incubated for 90 mins by liquid scintillation counting method; assay type: functional; conditions: Membrane, filed as antagonist

Mu-type opioid receptor, sequence (P35372 whole entry): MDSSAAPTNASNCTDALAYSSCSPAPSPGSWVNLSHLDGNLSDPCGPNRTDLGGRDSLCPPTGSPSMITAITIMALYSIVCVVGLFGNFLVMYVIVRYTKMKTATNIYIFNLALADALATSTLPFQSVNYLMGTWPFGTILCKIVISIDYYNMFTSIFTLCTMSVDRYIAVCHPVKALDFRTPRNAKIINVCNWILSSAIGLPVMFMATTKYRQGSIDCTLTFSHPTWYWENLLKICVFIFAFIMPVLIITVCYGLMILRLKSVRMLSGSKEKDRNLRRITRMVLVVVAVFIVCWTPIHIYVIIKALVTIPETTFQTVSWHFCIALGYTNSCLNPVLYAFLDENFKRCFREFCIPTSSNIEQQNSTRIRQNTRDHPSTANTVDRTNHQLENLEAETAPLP

SMILES: C=CCOc1ccc(C[C@H](NC(C)=O)C(=O)N[C@@H](Cc2cccc(OCC=C)c2)C(=O)N[C@@H](Cc2ccccc2)C(=O)N[C@@H](CCCNC(=N)N)C(=O)N[C@@H](CC(C)C)C(=O)N[C@@H](CCCNC(=N)N)C(=O)N[C@@H](CCCNC(=N)N)C(=O)N[C@H](C)C(=O)N[C@@H](CCCNC(=N)N)C(=O)N2CCC[C@H]2C(=O)N[C@@H](CCCCN)C(N)=O)cc1
Ki (Mu-type opioid receptor): 490 nM
Ratio Ki (Homo sapiens): 8
Ki [1]: 62.2 nM

SMILES: C=CCOc1ccc(C[C@H](NC(=O)[C@H](Cc2ccccc2)NC(C)=O)C(=O)N[C@@H](Cc2cccc(OCC=C)c2)C(=O)N[C@@H](CCCNC(=N)N)C(=O)N[C@@H](CC(C)C)C(=O)N[C@@H](CCCNC(=N)N)C(=O)N[C@@H](CCCNC(=N)N)C(=O)N[C@H](C)C(=O)N[C@@H](CCCNC(=N)N)C(=O)N2CCC[C@H]2C(=O)N[C@@H](CCCCN)C(N)=O)cc1
Ki (Mu-type opioid receptor): 1380 nM
Ratio Ki (Homo sapiens): 118
Ki [1]: 11.7 nM

SMILES: CC(=O)N[C@H]1Cc2cccc(c2)OC/C=C/COc2cccc(c2)C[C@@H](C(=O)N[C@@H](Cc2ccccc2)C(=O)N[C@@H](CCCNC(=N)N)C(=O)N[C@@H](CC(C)C)C(=O)N[C@@H](CCCNC(=N)N)C(=O)N[C@@H](CCCNC(=N)N)C(=O)N[C@H](C)C(=O)N[C@@H](CCCNC(=N)N)C(=O)N2CCC[C@H]2C(=O)N[C@@H](CCCCN)C(N)=O)NC1=O
Ki (Mu-type opioid receptor): 1630 nM
Ratio Ki (Homo sapiens): 24
Ki [1]: 68.2 nM

SMILES: C=CCOc1cccc(C[C@H](NC(C)=O)C(=O)N[C@@H](Cc2cccc(OCC=C)c2)C(=O)N[C@@H](Cc2ccccc2)C(=O)N[C@@H](CCCNC(=N)N)C(=O)N[C@@H](CC(C)C)C(=O)N[C@@H](CCCNC(=N)N)C(=O)N[C@@H](CCCNC(=N)N)C(=O)N[C@H](C)C(=O)N[C@@H](CCCNC(=N)N)C(=O)N2CCC[C@H]2C(=O)N[C@@H](CCCCN)C(N)=O)c1
Ki (Mu-type opioid receptor): 491 nM
Ratio Ki (Homo sapiens): 7
Ki [1]: 65.8 nM

SMILES: CC(=O)N[C@@H](Cc1ccccc1)C(=O)N[C@H]1Cc2ccc(cc2)OC/C=C/COc2cccc(c2)C[C@@H](C(=O)N[C@@H](CCCNC(=N)N)C(=O)N[C@@H](CC(C)C)C(=O)N[C@@H](CCCNC(=N)N)C(=O)N[C@@H](CCCNC(=N)N)C(=O)N[C@H](C)C(=O)N[C@@H](CCCNC(=N)N)C(=O)N2CCC[C@H]2C(=O)N[C@@H](CCCCN)C(N)=O)NC1=O
Ki (Mu-type opioid receptor): 607 nM
Ratio Ki (Homo sapiens): 31
Ki [1]: 19.8 nM

SMILES: C=CCOc1ccc(C[C@H](NC(=O)[C@H](Cc2ccccc2)NC(C)=O)C(=O)N[C@@H](Cc2ccc(OCC=C)cc2)C(=O)N[C@@H](CCCNC(=N)N)C(=O)N[C@@H](CC(C)C)C(=O)N[C@@H](CCCNC(=N)N)C(=O)N[C@@H](CCCNC(=N)N)C(=O)N[C@H](C)C(=O)N[C@@H](CCCNC(=N)N)C(=O)N2CCC[C@H]2C(=O)N[C@@H](CCCCN)C(N)=O)cc1
Ki (Mu-type opioid receptor): 1220 nM
Ratio Ki (Homo sapiens): 65
Ki [1]: 18.9 nM

SMILES: CC(=O)N[C@H]1Cc2cccc(c2)OC/C=C/COc2ccc(cc2)C[C@@H](C(=O)N[C@@H](Cc2ccccc2)C(=O)N[C@@H](CCCNC(=N)N)C(=O)N[C@@H](CC(C)C)C(=O)N[C@@H](CCCNC(=N)N)C(=O)N[C@@H](CCCNC(=N)N)C(=O)N[C@H](C)C(=O)N[C@@H](CCCNC(=N)N)C(=O)N2CCC[C@H]2C(=O)N[C@@H](CCCCN)C(N)=O)NC1=O
Ki (Mu-type opioid receptor): 657 nM
Ratio Ki (Homo sapiens): 22
Ki [1]: 29.2 nM

SMILES: CC(=O)N[C@@H](Cc1ccccc1)C(=O)N[C@H]1Cc2ccc(cc2)OC/C=C/COc2ccc(cc2)C[C@@H](C(=O)N[C@@H](CCCNC(=N)N)C(=O)N[C@@H](CC(C)C)C(=O)N[C@@H](CCCNC(=N)N)C(=O)N[C@@H](CCCNC(=N)N)C(=O)N[C@H](C)C(=O)N[C@@H](CCCNC(=N)N)C(=O)N2CCC[C@H]2C(=O)N[C@@H](CCCCN)C(N)=O)NC1=O
Ki (Mu-type opioid receptor): 1370 nM
Ratio Ki (Homo sapiens): 93
Kb [2]: 15 nM
Ki [1]: 14.7 nM

SMILES: CC(=O)N[C@H]1Cc2ccc(cc2)OC/C=C/COc2cccc(c2)C[C@@H](C(=O)N[C@@H](Cc2ccccc2)C(=O)N[C@@H](CCCNC(=N)N)C(=O)N[C@@H](CC(C)C)C(=O)N[C@@H](CCCNC(=N)N)C(=O)N[C@@H](CCCNC(=N)N)C(=O)N[C@H](C)C(=O)N[C@@H](CCCNC(=N)N)C(=O)N2CCC[C@H]2C(=O)N[C@@H](CCCCN)C(N)=O)NC1=O
Ki (Mu-type opioid receptor): 501 nM
Ratio Ki (Homo sapiens): 9
Ki [1]: 56.7 nM

SMILES: CC(=O)N[C@H]1Cc2ccc(cc2)OC/C=C/COc2ccc(cc2)C[C@@H](C(=O)N[C@@H](Cc2ccccc2)C(=O)N[C@@H](CCCNC(=N)N)C(=O)N[C@@H](CC(C)C)C(=O)N[C@@H](CCCNC(=N)N)C(=O)N[C@@H](CCCNC(=N)N)C(=O)N[C@H](C)C(=O)N[C@@H](CCCNC(=N)N)C(=O)N2CCC[C@H]2C(=O)N[C@@H](CCCCN)C(N)=O)NC1=O
Ki (Mu-type opioid receptor): 1430 nM
Ratio Ki (Homo sapiens): 123
Kb [2]: 288 nM
Ki [1]: 11.7 nM

SMILES: C=CCOc1ccc(C[C@H](NC(=O)[C@H](Cc2cccc(OCC=C)c2)NC(C)=O)C(=O)N[C@@H](Cc2ccccc2)C(=O)N[C@@H](CCCNC(=N)N)C(=O)N[C@@H](CC(C)C)C(=O)N[C@@H](CCCNC(=N)N)C(=O)N[C@@H](CCCNC(=N)N)C(=O)N[C@H](C)C(=O)N[C@@H](CCCNC(=N)N)C(=O)N2CCC[C@H]2C(=O)N[C@@H](CCCCN)C(N)=O)cc1
Ki (Mu-type opioid receptor): 478 nM
Ratio Ki (Homo sapiens): 11
Ki [1]: 43.2 nM

SMILES: C=CCOc1cccc(C[C@H](NC(=O)[C@H](Cc2ccccc2)NC(C)=O)C(=O)N[C@@H](Cc2cccc(OCC=C)c2)C(=O)N[C@@H](CCCNC(=N)N)C(=O)N[C@@H](CC(C)C)C(=O)N[C@@H](CCCNC(=N)N)C(=O)N[C@@H](CCCNC(=N)N)C(=O)N[C@H](C)C(=O)N[C@@H](CCCNC(=N)N)C(=O)N2CCC[C@H]2C(=O)N[C@@H](CCCCN)C(N)=O)c1
Ki (Mu-type opioid receptor): 838 nM
Ratio Ki (Homo sapiens): 255
Ki [1]: 3.3 nM

SMILES: CC(=O)N[C@@H](Cc1ccccc1)C(=O)N[C@H]1Cc2cccc(c2)OC/C=C/COc2ccc(cc2)C[C@@H](C(=O)N[C@@H](CCCNC(=N)N)C(=O)N[C@@H](CC(C)C)C(=O)N[C@@H](CCCNC(=N)N)C(=O)N[C@@H](CCCNC(=N)N)C(=O)N[C@H](C)C(=O)N[C@@H](CCCNC(=N)N)C(=O)N2CCC[C@H]2C(=O)N[C@@H](CCCCN)C(N)=O)NC1=O
Ki (Mu-type opioid receptor): 1960 nM
Ratio Ki (Homo sapiens): 50
Ki [1]: 39.2 nM

SMILES: C=CCOc1ccc(C[C@H](NC(=O)[C@H](Cc2cccc(OCC=C)c2)NC(=O)[C@H](Cc2ccccc2)NC(C)=O)C(=O)N[C@@H](CCCNC(=N)N)C(=O)N[C@@H](CC(C)C)C(=O)N[C@@H](CCCNC(=N)N)C(=O)N[C@@H](CCCNC(=N)N)C(=O)N[C@H](C)C(=O)N[C@@H](CCCNC(=N)N)C(=O)N2CCC[C@H]2C(=O)N[C@@H](CCCCN)C(N)=O)cc1
Ki (Mu-type opioid receptor): 1330 nM
Ratio Ki (Homo sapiens): 32
Ki [1]: 41.2 nM

SMILES: CC(=O)N[C@@H](Cc1ccccc1)C(=O)N[C@H]1Cc2cccc(c2)OC/C=C\COc2cccc(c2)C[C@@H](C(=O)N[C@@H](CCCNC(=N)N)C(=O)N[C@@H](CC(C)C)C(=O)N[C@@H](CCCNC(=N)N)C(=O)N[C@@H](CCCNC(=N)N)C(=O)N[C@H](C)C(=O)N[C@@H](CCCNC(=N)N)C(=O)N2CCC[C@H]2C(=O)N[C@@H](CCCCN)C(N)=O)NC1=O
Ki (Mu-type opioid receptor): 828 nM
Ratio Ki (Homo sapiens): 54
Ki [1]: 15.4 nM

Ki (Mu-type opioid receptor): 1740 nM
SMILES: CC(=O)N[C@@H](Cc1ccccc1)C(=O)N[C@@H](Cc1ccccc1)C(=O)N[C@@H](Cc1ccccc1)C(=O)N[C@@H](CCCNC(=N)N)C(=O)N[C@@H](CC(C)C)C(=O)N[C@@H](CCCNC(=N)N)C(=O)N[C@@H](CCCNC(=N)N)C(=O)N[C@H](C)C(=O)N[C@@H](CCCNC(=N)N)C(=O)N1CCC[C@H]1C(=O)N[C@@H](CCCCN)C(N)=O (Ac-FFFRLRR[dA]RPK-NH2)
Ratio Ki (Homo sapiens): 174

SMILES: C=CCOc1ccc(C[C@H](NC(C)=O)C(=O)N[C@@H](Cc2ccc(OCC=C)cc2)C(=O)N[C@@H](Cc2ccccc2)C(=O)N[C@@H](CCCNC(=N)N)C(=O)N[C@@H](CC(C)C)C(=O)N[C@@H](CCCNC(=N)N)C(=O)N[C@@H](CCCNC(=N)N)C(=O)N[C@H](C)C(=O)N[C@@H](CCCNC(=N)N)C(=O)N2CCC[C@H]2C(=O)N[C@@H](CCCCN)C(N)=O)cc1
Ki (Mu-type opioid receptor): 221 nM
Ratio Ki (Homo sapiens): 18
Ki [1]: 12.1 nM
